The values below come from ChEMBL document CHEMBL4041506, “Urea-containing peptide boronic acids as potent proteasome inhibitors” (Eur J Med Chem, 2017).

A short description of data set [1]: Clearance in Sprague-Dawley rat plasma at 3 mg/kg, iv administered as bolus after 24 hrs by LC/MS/MS analysis. Format: ADME, organism-based.
Data set [2] has as its system BEL-7404 tumor cell line. As to the kind of experiment: Antitumor activity against human Bel7404 cells xenografted in BALB/c nude mouse assessed as effect on tumor volume at 2 mg/kg, iv administered once in two days for 24 consecutive days measured on day 13 of compound dosing relative to control. Format: functional. A general note: Xenograft models place foreign cells or tissue in a host animal.

The test system of data set [3] is BEL-7404 tumor cell line. Briefly: Antitumor activity against human Bel7404 cells xenografted in BALB/c nude mouse assessed as effect on tumor volume at 2 mg/kg, iv administered once in two days for 24 consecutive days measured on day 20 of compound dosing relative to control. Format: functional.
Data set [4] concerns Mus musculus. As to the kind of experiment: Toxicity in human Bel7404 cells xenografted BALB/c mouse assessed as effect on body weight at 1 mg/kg, iv administered once in two days for 24 consecutive days measured on day 3 of compound dosing (reference value: 25.39 +/- 1 g). Format: organism-based. The note with it: in vivo.
The subject of data set [5] is Mus musculus. As to the kind of experiment: Toxicity in human Bel7404 cells xenografted BALB/c mouse assessed as effect on body weight at 0.5 mg/kg, iv administered once in two days for 24 consecutive days measured on day 6 of compound dosing (reference value: 25.65 +/- 0.70 g). In kind it is organism-based. The following applies: in vivo.
Data set [6] deals with Mus musculus. As to the kind of experiment: Toxicity in human Bel7404 cells xenografted BALB/c mouse assessed as effect on body weight at 1 mg/kg, iv administered once in two days for 24 consecutive days measured on day 13 of compound dosing (reference value: 26.10 +/- 1.08 g). The note with it: in vivo. Format: organism-based.
Data set [7] has as its system Mus musculus. Briefly: Toxicity in human Bel7404 cells xenografted BALB/c mouse assessed as effect on body weight at 2 mg/kg, iv administered once in two days for 24 consecutive days measured on day 20 of compound dosing (reference value: 26.43 +/- 0.94 g). The note with it: in vivo. Format: organism-based.
Data set [8] can be described thus: Plasma concentration in Sprague-Dawley rat at 3 mg/kg, iv administered as bolus measured at 8 hrs by LC/MS/MS analysis. Format: ADME, organism-based.
Data set [9] in a line: Initial concentration in Sprague-Dawley rat at 3 mg/kg, iv administered as bolus after 24 hrs by LC/MS/MS analysis. In kind it is ADME, organism-based. The note with it: in vivo.
A short description of data set [10]: MRT in Sprague-Dawley rat at 3 mg/kg, iv administered as bolus after 24 hrs by LC/MS/MS analysis. The following applies: in vivo. Format: ADME, organism-based.

As to `CC(C)C[C@H](NC(=O)[C@H](Cc1ccccc1)NC(=O)N1CCc2ccccc2C1)B(O)O`, the clearance in data set [1] is 55.5 mL/min/kg. The “fold change (FC)” value in [2] is 2.64; in data set [3], 3.7. For the same compound, the Activity in data set [4] came out at 25.12 g; in data set [5] it was 24.3 g; in data set [6], 25.63 g; in [7] it was 22.17 g. Further, the concentration at 8 h in [8] worked out at 10.2 ng/mL. Besides, the C0 at 24 h in [9] is 4080 ng/mL. This compound displayed an MRT in [10] of 1.2 h.

Usually clearance stands for a measure of how efficiently the substance is removed, as volume per time. Read a low clearance as a low capacity for elimination. The term MRT denotes a mean duration of stay, worked out from the concentration-time curve.
